Test results from US9234176B2, “Chemically defined production of cardiomyocytes from pluripotent stem cells” (The Board of Trustees of the Leland Stanford Junior …, priority 2012, dated 2016).

Assays:
hPSC = assay: Directed cardiac differentiation of hPSC in minimal media (Example 1); format: cell-based, human; details: for inducing cardiac differentiation (GSK-3β inhibitors, Wnt signaling agonists): BIO 2-5 μM, CHIR-99021 4-10 μM; for Wnt signaling antagonist effective for cardiac differentiation: at a concentration of 5 μM
Protocol: Directed Cardiac Differentiation Procedure. (volumes provided are for a T25 flask; adjust volumes proportionately for larger vessels) Day 0 (day 4 after passage): Aspirate medium, and replace with 5 mL of minimal media (CDM3, D3, D4, or D11) supplemented with 6 uM of CHIR-99021 (CHIR-99021 can be used at 4-15 μM). Place flasks in a regular ambient O2, 5% CO2 incubator. Day 2: 48 h. Aspirate media and replace with 5 mL of minimal media (CDM3, D3, D4, or D11). Day 3: 72 h. Aspirate media and replace with 5 mL of minimal media (CDM3, D3, D4, or D11) supplemented with 0.5 uM C59 (C59 may be used at 0.5-5 μM). Day 5: Aspirate media and replace with 5 mL of minimal media (CDM3, D3, D4, or D11). From day 5 onwards media should be changed every 2 days with minimal media (CDM3, D3, D4, or D11).
From day 0 to day 2 (d0-d2), minimal media (CDM3, D3, D4, or D11) was supplemented with the Wnt signaling agonist CHIR-99021 (6-10 uM 48 h, d0-d2), which triggers canonical Wnt/β-Catenin signaling that leads to the subsequent up-regulation of BMP4 and activin A. Media is then exchanged to non-supplemented minimal media (CDM3, D3, D4, or D11) for 1 day followed by contact with a Wnt signaling antagonist (e.g., C59: 0.5-5 uM, 48 h, d3-d5) for 2 days. At day 5, 7, and 9 minimal media (CDM3, D3, D4, or D11) is exchanged for fresh media, and contraction begins between d7 and d10. At day 11, media is exchanged to a variant of minimal media (CDM3, D3, D4, or D11) without […] that results in the depletion of non-cardiomyocytes due to a lack of glycogen stores. Media was exchanged on day 13 for fresh media lacking glucose. At day 15, media was exchanged for fresh minimal media (CDM3, D3, D4, or D11) (containing glucose).
The presence of cardiomyocytes was verified in a number of different ways, for example: flow cytometry of cells contacted with an antibody specific for a cardiomyocyte marker (TNNT2); imaging of cells stained with antibodies specific for α-Sarcomeric actin (red) and Troponin T (TNNT2); electrophysiological profiling; and evaluating responsiveness to known cardioactive drugs (e.g., Norepinephrine). Assays performed on multiple different cell lines (including several hESC lines and over 30 hiPSC lines) confirmed that the subject methods are highly consistent and highly efficient, as very little variability was observed among the different cell lines.

hiPSCs = assay: Cardiac differentiation of hiPSCs in CDM3, optimisation of media and small molecules (TNNT2 flow cytometry); format: cell-based; details: for timing of Wnt signaling modulation for cardiac differentiation efficiency: CHIR99021 for 2 days followed by Wnt-C59 for 2 days, in CDM3; for cell death / toxicity of GSK3B inhibitors: in CDM3, FIG. 10g; for inducing cardiac differentiation (GSK3B inhibitors): in CDM3, FIG. 10g-h
Protocol: Cardiac differentiation of hiPSCs. hiPSCs and hESCs (>p20) were split at 1:10 or 1:12 ratios using EDTA as above and grown for 4 days at which time they reached ˜85% confluence. Media was changed to CDM3, consisting of RPMI 1640 (11875, Life Technologies), 495 μg/mL Oryza sativa-derived recombinant human albumin (A0237, Sigma-Aldrich, 75 mg/mL stock solution in dH2O, stored at −20° C.), 213 μg/mL L-ascorbic acid 2-phosphate (Sigma-Aldrich, 64 mg/mL stock solution in dH2O, stored at −20° C.). Media was changed every other day (48 h). For d0-d2, media was supplemented with 6 μM CHIR99021 (LC Laboratories, Woburn, Mass., USA). On d2, media was change to CDM3 supplemented with […] Wnt-C59 (Cellagentech, San Diego, Calif., USA). Media was changed on d4 and every other day for CDM3.
Wnt inhibitors assessed were IWP-2, IWR-1 (Sigma-Aldrich), XAV-939, ICG-001 (Selleck Chemicals), IWP-4 (Stemgent, Cambridge, Mass., USA), and Wnt-C59 (Cellagentech). GSK3B inhibitors assessed were CHIR99021 (LC Laboratories), BIO, TWS119 (Selleck Chemicals), 1-azenkenpaullone, TDZD-8, ARA014418, and 3F8 (all Sigma-Aldrich). Inhibitors used for pathway analysis were PD173074, SB203580, LDN193189, SB431542 (all Selleck Chemicals), SU5402, Dorsomorphin, A83-01 (Tocris, Bristol, UK), ALK5 inhibitor (Stemgent), and ITD-1 (Xcessbio, San Diego, Calif., USA). All small molecules were re-suspended to 10 mM in dimethyl sulfoxide (DMSO).
Flow cytometry. For optimization of cardiac differentiation conditions, cells were cultured in 12-well plates. For analysis of cardiomyocyte differentiation efficacy and subtype specification, expression of TNNT2, MLC2A and MLC2V was analyzed by flow cytometry. At d14-15 of differentiation, the entire well was dissociated with TrypLE Express for 10 min at 37° C. and transferred to flow cytometry tubes (BD Biosciences). Cells were then fixed with 1% PFA for 15 min, permeabilized with 90% methanol for 15 min and stained using 1:200 mouse monoclonal IgG1 TNNT2 (13-11, Thermo Scientific), 1:400 mouse monoclonal IgG2b MLC2A (MYL7, Synaptic Systems) and 1:200 rabbit polyclonal IgG MLC2V (MYL2, ProteinTech) for 45 min at RT. Secondary staining was performed with 1:1000 Alexa Fluor 488 goat anti-mouse IgG1, 1:1000 Alexa Fluor 488 goat anti-rabbit IgG (H+L), 1:1000 Alexa Fluor 647 goat anti-mouse IgG2b and 1:1000 Alexa Fluor 647 goat anti-rabbit IgG (H+L) secondary antibodies for 20 min. […] Cells were analyzed using a FACSAria II (BD Biosciences) with a […] and FACSDiva software. Data were analyzed using FlowJo 8.7 (Tree Star).

hiPSC [1] = assay: Analysis of components of defined media for hiPSC cardiac differentiation (contraction score); format: cell-based, human; parameters: 9 components subtracting: cardiac differentiation score / 2 components subtracting: cardiac differentiation score: scale not given here
Description: Development of a Chemically Defined Cardiac Differentiation Platform. We first generated eleven pluripotent hiPSC lines under chemically defined conditions (FIG. 7) on a chemically synthesized vitronectin peptide substrate, with nonenzymatic passaging (FIG. 8). […] To formulate a chemically defined differentiation protocol, we concentrated on the observation that three unrelated media formations are capable of supporting growth factor-based monolayer cardiac differentiation: RPMI+B27-ins, supplemented StemPro-34, and LI-APEL (Table 5). […] Beginning with the 21 components of B27, we subtracted one component at a time and assessed for continued high efficiency differentiation (Table 6a-c) and also assessed components from two other two media (supplemented StemPro-34 and LI-APEL) that yielded benefits (Table 6d-f). We concluded that hiPSC cardiac differentiation was successful in a media consisting of […]: RPMI 1640 basal medium, L-ascorbic acid 2-phosphate (AA 2-P), and BSA (Table 6g).
Other additions to cardiac differentiation media tested were 10.7 μg/mL recombinant human transferrin, […], 1 μg/mL linoleic acid, 1 μg/mL linolenic acid, 2 ng/mL triiodo-l-thyronine, 2 μg/mL L-carnitine, 1 μg/mL D,L-alpha-tocopherol acetate, 100 ng/mL retinol acetate, 1 μg/mL ethanolamine, 20 ng/mL corticosterone, 9 ng/mL progesterone, 47 ng/mL lipoic acid, 100 ng/mL retinol, 1 μg/mL D,L-alpha-tocopherol, 100 ng/mL biotin, 2.5 ug/mL catalase, 2.5 μg/mL glutathione, 2.5 μg/mL superoxide dismutase, 2 μg/mL L-carnitine, 15 μg/mL D(+)-galactose, 16.1 μg/mL putrescine, 450 μM 1-thioglycerol, 55 μM 2-mercaptoethanol, 64 μg/mL L-ascorbic acid 2-phosphate (all from Sigma-Aldrich).

hiPSC [2] = assay: Defined matrices: pluripotent growth and cardiac differentiation of hiPSC; format: cell-based, human
Description: Determination that Laminin-Based Matrices are Most Suitable for Cardiac Differentiation. […] This lack of long-term adhesion during the differentiation was present irrelevant of vitronectin peptide concentrations and could be resolved by passaging and replating onto new matrix, yet we sought to find a more suitable solution. We assessed culture of hiPSC in E8 medium and subsequent differentiation on other defined matrices: recombinant human (rH) Ecadherin, rH vitronectin, rH laminin-521, truncated rH laminin-511, human fibronectin, or a fibronectin mimetic (FIG. 2a). Chemically defined long-term maintenance of pluripotency in E8 was successful on all surfaces except those based on fibronectin. […] Cells cultured on each of the five successful matrices (>6 passages) were then differentiated in CDM3. Although all matrices produced efficient differentiations (FIG. 2b), the laminin matrices were both successful for maintaining long-term adhesion during chemically defined cardiac differentiation (FIG. 2d), but prohibitively expensive for large-scale application. […]
Growth assays. To assess cell growth, cells were counted using a Countess automated cell counter (Life Technologies). […] Cumulative population doublings was calculated using the formula n=3.32 [log10(N/N0)].
Matrices. […] Matrices were assessed on both 6-well polystyrene tissue culture plates and untreated plates (both from Greiner). […]

Cc1cnc(-c2cnc(NCCNc3ccc(C#N)cn3)nc2-c2ccc(Cl)cc2Cl)[nH]1 [CHIR-99021, 6-[[2-[[4-(2,4-dichlorophenyl)-5-(5-methyl-1H-imidazol-2-yl)-2-pyrimidinyl]amino]ethyl]amino]-3-pyridinecarbonitrile]
inducing cardiac differentiation (GSK-3β inhibitors, Wnt signaling agonists) (hPSC): successful at inducing cardiac differentiation | timing of Wnt signaling modulation for cardiac differentiation efficiency (hiPSCs): optimal | cell death / toxicity of GSK3B inhibitors (hiPSCs): did not cause total cell death | inducing cardiac differentiation (GSK3B inhibitors) (hiPSCs): successful at inducing any suitable cardiac differentiation

O=C1Nc2cc(Br)ccc2/C1=C1/Nc2ccccc2/C1=N\O [BIO, 6-bromo-3-[(3E)-1,3-dihydro-3-(hydroxyimino)-2H-indol-2-ylidene]-1,3-dihydro-(3Z)-2H-indol-2-one]
inducing cardiac differentiation (GSK-3β inhibitors, Wnt signaling agonists) (hPSC): successful at inducing cardiac differentiation | cell death / toxicity of GSK3B inhibitors (hiPSCs): did not cause total cell death | inducing cardiac differentiation (GSK3B inhibitors) (hiPSCs): successful at inducing any suitable cardiac differentiation

O=C1O[C@H]([C@@H](O)CO)C(O)=C1OP(=O)(O)O [AA 2-P, L-ascorbic acid 2-phosphate]
9 components with the addition of: cardiac differentiation score (hiPSC [1]; d) component at 10 x concentration): +++ (>75% contraction) | 9 components (with 4 at 10x) subtracting: cardiac differentiation score (hiPSC [1]; e) third medium with increased concentrations, each component subtracted): 0 | 6 components subtracting: cardiac differentiation score (hiPSC [1]; f) fourth 6-component medium, each component subtracted): 0 | 2 components subtracting: cardiac differentiation score (hiPSC [1]; g) final 3-component medium (RPMI 1640, BSA, 10 x L-ascorbic acid 2-phosphate), component subtracted): 0 | effect of omitting the component from the differentiation medium (hiPSCs; medium without AA 2-P (FIG. 10a)): total cell death

OCC(O)CS (stereo not drawn) [1-thioglycerol]
effect of addition on differentiation (hPSC; addition d0-d2, PVA 0.4%): severely limited rather than enhanced differentiation | 9 components with the addition of: cardiac differentiation score (hiPSC [1]; d) addition of components from the other media formulae of Table 5): 0

recombinant laminin-521: recombinant human laminin-521 matrix
support of pluripotent hiPSC growth and long-term adherence of CMs (hiPSC [2]): most successful

Cc1ccc2nc(NC(=O)CSc3nc4c(c(=O)n3-c3ccccc3)SCC4)sc2c1 [IWP-2, N-(6-Methyl-2-benzothiazoyl)-2-[(3,4,6,7-tetrahydro-4-oxo-3-phenylthieno[3,2-d]pyrimidin-2-yl)thio]-acetamide]
Wnt signaling antagonist effective for cardiac differentiation (hPSC): effective

Cc1cc(-c2ccc(CC(=O)Nc3ccc(-c4cccnc4)cc3)cc2)ccn1 [C59]
Wnt signaling antagonist effective for cardiac differentiation (hPSC): effective | timing of Wnt signaling modulation for cardiac differentiation efficiency (hiPSCs): optimal
